The values that follow come from patent US20040023972A1, “Use of substituted imidazo[1,2-a]-pyridin-, -pyrimidin-and-pyrazin-3-yl-amine derivatives in the preparation of medicaments for inhibiting NOS” (Gruenenthal GmbH, priority 2000, published 2004).

The target of this experiment is T1, NO synthase (Rattus norvegicus, UniProt P29476).
T1 construct: the supernatant was then removed by decantation and frozen in portions at −80° C; from tissue; host or cells: rat cerebellum, 20,000 g supernatant of homogenate
Kind of experiment: HTS-NOS assay (NOS assay): conversion of radioactive arginine, cation-exchanger filter plate. It is filed as biochemical. The conditions noted are these: for inhibition at 10 µM: read-out: HTS-NOS assay: % inhibition (10 μM). Here is the method: This assay enables the percentage inhibition of NO synthase by an active ingredient to be determined by measuring the NOS activity under the action of the active ingredient. NO synthase is mixed together with radioactively labelled arginine and the active ingredient under suitable conditions. After terminating the NO-forming reaction at a given time, the amount of unconverted arginine is determined directly or indirectly. A comparison of that amount with the amount of arginine that remains in a mixture of NOS and arginine without the addition of active ingredient and under otherwise identical conditions gives the % inhibition of NO synthase by the tested active ingredient. This assay can be carried out as follows:
(a) incubation of NO synthase with labelled arginine as substrate in a reaction vessel,
(b) separation of the labelled arginine from the labelled citrulline optionally formed as a product of the enzymatic reaction, at a time at which the citrulline concentration is increasing,
(c) measurement of the amount of arginine remaining in each case.
Separation is carried out over a filter plate membrane.
This NOS assay is suitable especially for “high throughput screening” (HTS) on microtitre plates (MTP).
In this HTS-NOS assay, radioactive arginine is used as substrate. The assay volume can be chosen in the range from 25 μl to 250 μl, according to the type of microtitre plate (MTP). Depending on the source of the enzyme used, co-factors and co-enzymes are added. Incubation of the batches on this microtitre plate (assay MTP) according to step (a) is carried out at room temperature and is for 5 to 60 minutes according to the enzyme activity used (units). At the end of the incubation (step (a)), the plate is placed into a cell harvester which is equipped with a MTP having a cation-exchanger membrane as the filter base (filter MTP). All batches of the assay MTP are transferred to the filter MTP and filtered off with suction over a cation-exchanger filter plate, a paper filter charged with phosphate groups. The filter MTP is then washed with buffer or water. By means of this procedure, the arginine substrate that remains is bound to the cation exchanger, while the enzymatically formed radioactive citrulline is washed out quantitatively. After drying the filter MTP and adding scintillation liquid, the bound arginine can be counted using a scintillation counter. An uninhibited NOS reaction is reflected in low radioactivity. An inhibited enzyme reaction means that the radioactive arginine has not been converted. This means that a high level of radioactivity is found on the filter.
Rat cerebella were used as the starting tissue. The animals were anaesthetized and sacrificed, the brain tissue, the cerebellum, was removed by dissection, 1 ml of enzyme preparation buffer was added per rat cerebellum (4° C.), and disintegration was carried out using a Polytron homogeniser for 1 minute at 6000 rpm, followed by centrifugation for 15 minutes at 4° C. and 20,000 g; the supernatant was then removed by decantation and frozen in portions at −80° C. (the precipitate was discarded).
96-well MTP having a well capacity of <250 μl were used.
Pipetting sequence: see Table 1.
When the pipetting operation was complete, a cover was placed on the MTP (assay MTP), and incubation was at 25° C. (room temperature (RT)) for from 5 to 60 minutes, according to the amount and activity of the enzyme used.
The contents of the assay MTP were then transferred with the aid of a 96-well cell harvester to a 96-well cation exchanger MTP (filter MTP) and filtered off with suction. This was followed by washing once with […] of H2O (from a bath).
The plate was then dried for 1 hour at 60° C. in a drying cabinet. The underside of the filter MTP was then accurately sealed from beneath with a “back seal”. 35 μl of scintillation fluid per well were then added by means of a pipette. The upper side of the plate was also sealed with a “top seal”. […]

As usually defined, the inhibition is the change of the read-out against control, counted positive when it falls.

Molecules are shown by their SMILES.

On to `Cc1cc(C)n2c(NC(C)(C)CC(C)(C)C)c(-c3ccccc3C)nc2c1` [Example 38, (5,7-Dimethyl-2-o-tolyl-imidazo[1,2-a]-pyridin-3-yl)-(1,1,3,3-tetramethyl-butyl)-amine], for which the inhibition at 10 µM amounted to 60%. Still for that read-out and setting: in the case of `CCCCNc1c(-c2ccccc2OC)nc2ccc(C)cn12` [Example 138, Butyl-[2-(2-methoxy-phenyl)-6-methyl-imidazo[1,2-a]pyridin-3-yl]-amine] it was 52%; in that of `CSc1ccc(-c2nc3cnccn3c2N(C(C)=O)C(C)(C)CC(C)(C)C)s1` [Example 235, N-[2-(5-methylsulfanyl-thiophen-2-yl)-imidazo[1,2-a]pyrazin-3-yl]-N-(1,1,3,3-tetramethyl-butyl)-acetamide], 58%. On the same count and under the same terms, then `CC(=O)N(c1c(-c2cccc(Cl)c2Cl)nc2ccccn12)C(C)(C)C` [Example 227, N-tert-butyl-N-[2-(2,3-dichloro-phenyl)-imidazo[1,2-a]pyridin-3-yl]-acetamide], with 54%; and `Cc1ccn2c(Nc3c(C)cccc3C)c(-c3ccc(CO)o3)nc2n1` [Example 132, {5-[3-(2,6-Dimethyl-phenylamino)-7-methyl-imidazo[1,2-a]pyrimidin-2-yl]-furan-2-yl}-methanol], with 52%; and `Cc1cc(C)n2c(Nc3c(C)cccc3C)c(-c3ccccc3C)nc2c1` [Example 32, (2,6-Dimethyl-phenyl)-(5,7-dimethyl-2-o-tolyl-imidazo[1,2-a]pyridin-3-yl)-amine], with 59%.

As for `CC(=O)N(c1c(-c2ccc(Cl)cc2Cl)nc2ncccn12)C1CCCCC1` [Example 275, N-cyclohexyl-N-[2-(2,4-dichloro-phenyl)-imidazo[1,2-a]pyrimidin-3-yl]-acetamide], the inhibition at 10 µM was 59%. Take `CCCCN(C(C)=O)c1c(-c2cccc(Cl)c2Cl)nc2ncccn12` [Example 255, N-butyl-N-[2-(2,3-dichloro-phenyl)-imidazo[1,2-a]pyrimidin-3-yl]-acetamide]: the inhibition at 10 µM turned out to be 65%.

With `COc1cccc(-c2nc3cc(C)cc(C)n3c2Nc2c(C)cccc2C)c1OC` [Example 48, [2-(2,3-Dimethoxy-phenyl)-5,7-dimethyl-imidazo[1,2-a]pyridin-3-yl]-(2,6-dimethyl-phenyl)-amine], the inhibition at 10 µM came to 68%. Still for that read-out and setting: then `O=[N+]([O-])c1cccc2cn[nH]c12` [7-nitroindazole, reference compound], with 50%; and `CC(=O)N(c1c(-c2c(F)cccc2Cl)nc2ccccn12)C(C)(C)C` [Example 258, N-tert-butyl-N-[2-(2-chloro-6-fluoro-phenyl)-imidazo[1,2-a]pyridin-3-yl]-acetamide], with 60%; and `Cc1ccn2c(NC3CCCCC3)c(-c3ccncc3)nc2c1` [Example 7, Cyclohexyl-(7-methyl-2-pyridin-4-yl-imidazo[1,2-a]pyridin-3-yl)-amine], with 65%.

On to `Cc1cc(C)n2c(NC3CCCCC3)c(-c3ccc(C(=O)O)o3)nc2c1` [Example 87, 5-(3-Cyclohexylamino-5,7-dimethyl-imidazo[1,2-a]pyridin-2-yl)-furan-2-carboxylic acid], for which the inhibition at 10 µM came out at 54%. Consider `[C-]#[N+]CCCCCCNc1c(-c2ccccn2)nc2cc(C)ccn12` [Example 107, Methylidyne-[6-(7-methyl-2-pyridin-2-yl-imidazo[1,2-a]pyridin-3-ylamino)-hexyl]-ammonium], for which the “HTS-NOS assay: % inhibition (10 μM)” value is reported as 50%.

Regarding `[C-]#[N+]CCCCCCNc1c(-c2ccccc2Br)nc2cc(C)cc(C)n12` [Example 92, {6-[2-(2-Bromophenyl)-5,7-dimethyl-imidazo[1,2-a]pyridin-3-ylamino]-hexyl}-methylidyne-ammonium], the “HTS-NOS assay: % inhibition (10 μM)” value is on record as 60%.

Regarding `CC(=O)N(c1c(-c2ccc(C(=O)O)o2)nc2cc(C)cc(C)n12)C1CCCCC1` [Example 197, 5-[3-(acetyl-cyclohexyl-amino)-5,7-dimethyl-imidazo[1,2-a]pyridin-2-yl]-furan-2-carboxylic acid], the inhibition at 10 µM came out at 70%.

Consider `Cc1ccn2c(NC(C)(C)CC(C)(C)C)c(-c3ccc(-c4cccc(Cl)c4)o3)nc2c1` [Example 98, {2-[5-(3-Chlorophenyl)-furan-2-yl]-7-methyl-imidazo[1,2-a]pyridin-3-yl}-(1,1,3,3-tetramethyl-butyl)-amine], for which the inhibition at 10 µM was determined as 62%. On to `Cc1ccn2c(NC(C)(C)C)c(-c3ccccn3)nc2c1` [Example 76, Tert-butyl-(7-methyl-2-pyridin-2-yl-imidazo[1,2-a]pyridin-3-yl)-amine], for which the inhibition at 10 µM stood at 67%. On the same count and under the same terms, then `CC(C)(C)Nc1c(-c2ccc(C(=O)O)s2)nc2cnccn12` [Example 119, 5-(3-Tert-butylamino-imidazo[1,2-a]pyrazin-2-yl)-thiophene-2-carboxylic acid], with 56%; and `Cc1cc(C)n2c(NC(C)(C)CC(C)(C)C)c(-c3cccc(Cl)c3Cl)nc2c1` [Example 84, [2-(2,3-Dichlorophenyl)-5,7-dimethyl-imidazo[1,2-a]pyridin-3-yl]-(1,1,3,3-tetramethyl-butyl)-amine], with 54%; and `CC(=O)N(c1c(-c2ccc(C)o2)nc2cc(C)cc(C)n12)C1CCCCC1` [Example 170, N-cyclohexyl-N-[5,7-dimethyl-2-(5-methyl-furan-2-yl)-imidazo[1,2-a]pyridin-3-yl]-acetamide], with 65%.

As for `Cc1ccn2c(NC3CCCCC3)c(C)nc2c1` [Example 69, Cyclohexyl-(2,7-dimethyl-imidazo[1,2-a]-pyridin-3-yl)-amine], the inhibition at 10 µM turned out to be 55%.

Take `Cc1ccn2c(NC3CCCCC3)c(-c3ccccn3)nc2c1` [Example 140, Cyclohexyl-(7-methyl-2-pyridin-2-yl-imidazo[1,2-a]pyridin-3-yl)-amine]: the inhibition at 10 µM is 55%. The same measure, in the same setting: in the case of `CC(=O)N(c1c(C)cccc1C)c1c(-c2cccc(O)c2)nc2cc(C)cc(C)n12` [Example 211, N-(2,6-dimethyl-phenyl)-N-[2-(3-hydroxy-phenyl)-5,7-dimethyl-imidazo[1,2-a]-pyridin-3-yl]-acetamide] it was 73%; in that of `CC(=O)N(c1c(C)nc2cc(C)cc(C)n12)C1CCCCC1` [Example 175, N-cyclohexyl-N-(2,5,7-trimethyl-imidazo[1,2-a]pyridin-3-yl)-acetamide], 52%; in that of `CCCCNc1c(-c2cccc(OC)c2OC)nc2cc(C)cc(C)n12` [Example 49, Butyl-[2-(2,3-dimethoxy-phenyl)-5,7-dimethyl-imidazo[1,2-a]pyridin-3-yl]-amine], 67%. Same read-out and setting: then `CC(=O)N(c1c(-c2sccc2Br)nc2ccccn12)C1CCCCC1` [Example 161, N-[2-(3-bromo-thiophen-2-yl)-imidazo[1,2-a]pyridin-3-yl]-N-cyclohexyl-acetamide], with 51%; and `COc1ccccc1-c1nc2cc(C)ccn2c1N(C(C)=O)C(C)(C)CC(C)(C)C` [Example 199, N-[2-(2-methoxy-phenyl)-7-methyl-imidazo[1,2-a]pyridin-3-yl]-N-(1,1,3,3-tetramethyl-butyl)-acetamide], with 57%.
